Measurements reported in patent US4624944A, “Human seminal alpha-inhibins” (The Regents of The University of California, priority 1985, dated 1986).
Where no end group is shown, it is not given here.

Columns and labels:
[1] = test system: LHRH-induced FSH secretion by mouse pituitary; assay: FSH-suppressing (inhibin) activity, in vitro mouse pituitary system; assay type: cell-based; settings: for ED50 (FSH-suppressing activity) / times more active than alpha-IB-31 in suppressing FSH (follitropin) release: mouse pituitaries in vitro; for ED50 (FSH-suppressing activity): LHRH-induced FSH secretion, 95% confidence limits in parenthesis; for times more active than alpha-IB-31 in suppressing FSH (follitropin) release: text statement; for Relative Potency (FSH-suppressing activity): relative to alpha-IB-31 = 1.0
Method: FIG. 6 is a graphical illustration of the effect of alpha-IB-31, alpha-IB-52, and alpha-IB-92 on LHRH-induced FSH secretion by mouse pituitary. Means ±SEM (n=5) are shown. On the graph solid circles represent alpha-IB-31; open circles represent alpha-IB-52; solid triangles represent alpha-IB-92.
Disc electrophoresis in polyacrylamide slab gels was performed as described by Reisfield, et al. (1962). The gels were stained with Coomassie Blue (R250). NaDodSO4 gel electrophoresis was carried out as described by Laemmli (1970). The inhibin activity was assayed by the in vitro mouse pituitary system (Yamashiro, et al., 1984; Ramasharma, et al., 1981).
FIG. 6 presents bioassay data for alpha-IB-31, alpha-IB-52 and alpha-IB-92 in suppressing the lutropin-releasing hormone (LHRH)-induced FSH secretion by using mouse pituitaries in vitro. […] The addition of 40 amino acids at the NH2 -terminus of alpha-IB-52 greatly enhance the inhibin activity.

[2] = test system: rabbit antiserum to alpha-IB-31; assay: RIA of alpha-inhibins using rabbit antiserum to ILP (displacement of labelled [Tyr4]-alpha-IB-31); assay type: binding; settings: for potency in displacing labelled [Tyr4]-alpha-IB-31, relative to alpha-IB-31: antiserum raised against alpha-IB-31, text statement; for ED50 (RIA): rabbit antiserum to ILP; for ED50 (RIA) / Relative Potency (RIA): 95% confidence limits in parenthesis; for Relative Potency (RIA): relative to alpha-IB-31 = 1.00
Method: Radioimmunoassay was performed with rabbit antiserum to alpha-IB-31. Amino acid analyses were performed in an automatic amino acid analyzer (Model 119C, Beckman) as described by Spackman, et al. (1958). The NH2 -terminal residue was determined by the dansyl-Edman procedure (Gray, 1967). For COOH-terminal residue analysis, carboxypeptidase Y digests were carried out in 1M pyridine acetate buffer (pH 5.5) for 4 hr at 37° C. with an enzyme-to-substrate ratio of 1:50. Trypsin digestions were performed with an enzyme-to-substrate ratio of 1:50 in 0.05M Tris/0.01 M Mg^2+, pH 8.5, at 37° C. for 4 hr.
Alpha-IB-52 and alpha-IB-92 cross-react to an antiserum raised against alpha-IB-31. They displace labelled [Tyr^4 ]-alpha-IB-31 with 60% of the potency of alpha-IB-31.

pituitary FSH secretion = settings: in vitro and in vivo, Yamashiro et al. (1984); cited from earlier work

potency in displacing labelled [Tyr4]-alpha-IB-31, relative to alpha-IB-31 [2] [%] | ED50 (RIA) [2] | Relative Potency (RIA) [2] | Substance | ED50 (FSH-suppressing activity) [1] | times more active than alpha-IB-31 in suppressing FSH (follitropin) release [1] [times] | Relative Potency (FSH-suppressing activity) [1] | suppression of pituitary FSH secretion (pituitary FSH secretion) | times more active than alpha-IB-31 in suppressing FSH (follitropin) release ([1]; listed as alpha-inhibin-92)
60 | 65 (45-92) fmoles | 0.58 (0.31-1.1) | HNKQEGRDHDKSKGHFHRVVIHHKGGKAHRGTQNPSQDQGNSPSGKGISSQY [alpha-IB-52, alpha-inhibin-52] | 0.30 (0.18-0.52) pmol/ml | 3.4 | 3.4 | – | –
– | 38 (29-50) fmoles | 1.00 | HNKQEGRDHDKSKGHFHRVVIHHKGGKAHRG [alpha-IB-31, alpha-inhibin-31, reference compound] | 1.02 (0.34-2.9) pmol/ml | – | 1.0 | suppresses pituitary FSH secretion in vitro and in vivo | –
60 | 63 (42-94) fmoles | 0.60 (0.31-1.2) | alpha-inhibin-92 [alpha-IB-92] | 0.025 (0.01-0.049) pmol/ml | 40 | 40.5 | – | over 40 times
